{
  "source": "ChEMBL document CHEMBL3232957",
  "about": "“Some non-conventional biomolecular targets for diamidines. A short survey” (Bioorg Med Chem, 2014)",
  "key": {"Mus musculus [1]": {"tested_on": "Mus musculus", "assay": "Neuroprotective activity in Swiss mouse focal cerebral injury model assessed as reduction of ibotenate-induced lesion size in white matter at 4 ug/kg", "format": "functional", "set-up": "scale not given: the % may be the effect or the level left"}, "Mus musculus [2]": {"tested_on": "Mus musculus", "assay": "Neuroprotective activity in Swiss mouse focal cerebral injury model assessed as reduction of ibotenate-induced lesion size in gray matter at 4 ug/kg", "format": "functional", "set-up": "scale not given: the % may be the effect or the level left"}, "[3]": {"assay": "Antiproliferative activity against human C8146A cells assessed as growth inhibition", "format": "functional, cell-based"}, "[4]": {"target": "Glutamate [NMDA] receptor", "assay": "Antagonist activity at NMDA receptor (unknown origin)", "set-up": "species or system Homo sapiens"}, "[5]": {"assay": "Binding affinity to r(CUG)6 (unknown origin) assessed as inhibition of RNA-MBNL1 interaction by quantitative TR-FRET assay"}, "Homo sapiens [6]": {"organism": "Homo sapiens", "assay": "Inhibition of human KIR2.X channel assessed as remaining inward current at 0.2 uM; values are per cent of control"}, "Homo sapiens [7]": {"organism": "Homo sapiens", "assay": "Inhibition of human KIR2.X channel assessed as remaining outward current at 0.2 uM; values are per cent of control"}, "[8]": {"assay": "Inhibition of mouse hippocampal neurons ASIC transfected in CHO cells assessed as inhibition of acid-evoked current at -60 mV holding potential by two-electrode voltage-clamp electrophysiology assay", "format": "cell-based"}, "[9]": {"target": "Glutamate NMDA receptor; GRIN1/GRIN2A (Homo sapiens, UniProt Q05586+Q12879)", "sequence (Q12879 whole entry, other chains not shown)": "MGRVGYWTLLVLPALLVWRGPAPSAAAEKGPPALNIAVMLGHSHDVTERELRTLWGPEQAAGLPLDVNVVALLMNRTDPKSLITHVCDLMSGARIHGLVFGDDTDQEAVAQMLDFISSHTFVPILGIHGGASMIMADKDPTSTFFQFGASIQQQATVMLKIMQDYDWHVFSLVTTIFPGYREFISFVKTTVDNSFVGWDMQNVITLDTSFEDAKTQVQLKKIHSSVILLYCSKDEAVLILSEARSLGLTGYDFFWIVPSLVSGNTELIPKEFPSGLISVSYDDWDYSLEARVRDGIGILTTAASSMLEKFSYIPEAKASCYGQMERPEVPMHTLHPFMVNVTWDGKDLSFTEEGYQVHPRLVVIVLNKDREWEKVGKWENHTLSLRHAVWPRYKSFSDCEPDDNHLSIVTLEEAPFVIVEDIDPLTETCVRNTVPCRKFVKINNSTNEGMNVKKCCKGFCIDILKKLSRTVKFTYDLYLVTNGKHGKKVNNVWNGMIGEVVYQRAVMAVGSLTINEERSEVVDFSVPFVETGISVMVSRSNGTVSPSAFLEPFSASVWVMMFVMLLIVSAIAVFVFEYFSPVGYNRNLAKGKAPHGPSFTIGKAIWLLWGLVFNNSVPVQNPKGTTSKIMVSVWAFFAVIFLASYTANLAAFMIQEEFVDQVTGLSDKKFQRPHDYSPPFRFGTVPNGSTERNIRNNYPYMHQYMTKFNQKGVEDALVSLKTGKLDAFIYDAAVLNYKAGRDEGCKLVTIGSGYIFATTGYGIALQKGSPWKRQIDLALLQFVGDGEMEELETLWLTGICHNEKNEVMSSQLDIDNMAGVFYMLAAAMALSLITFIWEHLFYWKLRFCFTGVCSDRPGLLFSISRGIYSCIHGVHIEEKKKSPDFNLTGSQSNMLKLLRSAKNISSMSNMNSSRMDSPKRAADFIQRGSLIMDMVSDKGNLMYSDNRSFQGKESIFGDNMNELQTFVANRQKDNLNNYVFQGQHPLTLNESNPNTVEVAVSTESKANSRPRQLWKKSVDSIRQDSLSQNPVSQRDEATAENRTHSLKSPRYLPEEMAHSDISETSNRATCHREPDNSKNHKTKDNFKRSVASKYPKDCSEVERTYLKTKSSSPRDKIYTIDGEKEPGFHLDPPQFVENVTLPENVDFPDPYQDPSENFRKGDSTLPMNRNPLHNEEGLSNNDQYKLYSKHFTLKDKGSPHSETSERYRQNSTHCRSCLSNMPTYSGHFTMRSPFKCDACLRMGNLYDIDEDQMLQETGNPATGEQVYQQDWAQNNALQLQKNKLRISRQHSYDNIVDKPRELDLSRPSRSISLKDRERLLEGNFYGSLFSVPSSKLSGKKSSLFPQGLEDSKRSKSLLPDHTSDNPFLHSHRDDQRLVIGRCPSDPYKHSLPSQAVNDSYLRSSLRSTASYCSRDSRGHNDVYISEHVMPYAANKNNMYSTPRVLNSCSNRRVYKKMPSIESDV", "assay": "Antagonist activity at NR1/NR2A receptor (unknown origin) expressed in Xenopus laevis oocytes assessed as inhibition of glutamate/glycine-induced current at pH 7.6 at -40mV holding potential by two-electrode voltage-clamp electrophysiology", "format": "cell-based"}, "[10]": {"assay": "Inhibition of mouse polyamine oxidase assessed as conversion of N-acetylspermine to […]"}, "[11]": {"target": "T1, Diamine oxidase [copper-containing] (Homo sapiens, UniProt P19801)", "T1 sequence (P19801 whole entry)": "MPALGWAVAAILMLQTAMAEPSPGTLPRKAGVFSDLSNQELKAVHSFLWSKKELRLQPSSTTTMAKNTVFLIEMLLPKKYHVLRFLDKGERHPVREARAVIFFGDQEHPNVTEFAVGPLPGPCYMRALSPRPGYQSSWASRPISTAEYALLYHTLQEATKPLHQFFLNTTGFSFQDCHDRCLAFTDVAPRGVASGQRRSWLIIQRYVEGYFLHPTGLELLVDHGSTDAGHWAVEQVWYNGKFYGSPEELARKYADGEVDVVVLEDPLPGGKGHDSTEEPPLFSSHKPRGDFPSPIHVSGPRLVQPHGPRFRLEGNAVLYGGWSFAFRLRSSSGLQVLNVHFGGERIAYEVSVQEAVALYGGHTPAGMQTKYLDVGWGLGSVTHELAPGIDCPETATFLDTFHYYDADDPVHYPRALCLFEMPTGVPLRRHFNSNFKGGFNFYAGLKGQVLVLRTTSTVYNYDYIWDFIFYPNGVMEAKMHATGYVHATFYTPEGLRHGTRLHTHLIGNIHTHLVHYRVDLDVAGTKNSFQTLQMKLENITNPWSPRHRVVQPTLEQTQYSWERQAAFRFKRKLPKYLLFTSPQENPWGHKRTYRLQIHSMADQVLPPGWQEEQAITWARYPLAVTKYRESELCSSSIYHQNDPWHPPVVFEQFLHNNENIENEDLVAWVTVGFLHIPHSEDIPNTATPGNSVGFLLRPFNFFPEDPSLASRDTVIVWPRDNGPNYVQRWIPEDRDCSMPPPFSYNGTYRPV", "assay": "Mixed type inhibition of recombinant human DAO expressed in drosophila S2 cells", "format": "cell-based"}, "[12]": {"target": "Diamine acetyltransferase 1 (Homo sapiens, UniProt P21673)", "sequence (P21673 whole entry)": "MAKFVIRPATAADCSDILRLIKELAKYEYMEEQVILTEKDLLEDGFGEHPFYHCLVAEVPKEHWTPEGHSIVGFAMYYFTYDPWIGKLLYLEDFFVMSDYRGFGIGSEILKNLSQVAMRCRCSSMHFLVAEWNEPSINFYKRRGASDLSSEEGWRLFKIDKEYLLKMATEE", "assay": "Inhibition of human SSAT using spermidine as substrate"}, "[13]": {"target": "T2, Acid-sensing ion channel 3 (Mus musculus) (UniProt Q6X1Y6)", "T2 sequence (whole entry)": "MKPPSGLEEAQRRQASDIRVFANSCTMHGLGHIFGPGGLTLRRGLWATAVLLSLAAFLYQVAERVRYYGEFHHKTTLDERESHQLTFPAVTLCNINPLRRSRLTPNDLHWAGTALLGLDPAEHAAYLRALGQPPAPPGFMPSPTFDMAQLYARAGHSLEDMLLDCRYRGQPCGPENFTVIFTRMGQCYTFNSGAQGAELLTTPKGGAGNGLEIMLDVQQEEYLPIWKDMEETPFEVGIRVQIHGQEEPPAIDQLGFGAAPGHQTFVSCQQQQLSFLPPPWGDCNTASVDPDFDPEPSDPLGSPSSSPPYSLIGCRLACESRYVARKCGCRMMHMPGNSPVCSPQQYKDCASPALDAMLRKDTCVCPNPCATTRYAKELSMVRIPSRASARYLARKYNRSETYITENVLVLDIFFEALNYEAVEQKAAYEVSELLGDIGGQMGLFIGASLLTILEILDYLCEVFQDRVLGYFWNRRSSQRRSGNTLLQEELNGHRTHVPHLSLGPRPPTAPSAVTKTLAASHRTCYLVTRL", "assay": "Inhibition of mouse hippocampal neurons ASIC3 transfected in CHO cells assessed as reduction of acid-evoked current at 3 uM at -60 mV holding potential by two-electrode voltage-clamp electrophysiology assay", "format": "cell-based"}, "[14]": {"target": "T3, Acid-sensing ion channel 1 (Mus musculus) (UniProt Q6NXK8)", "T3 sequence (whole entry)": "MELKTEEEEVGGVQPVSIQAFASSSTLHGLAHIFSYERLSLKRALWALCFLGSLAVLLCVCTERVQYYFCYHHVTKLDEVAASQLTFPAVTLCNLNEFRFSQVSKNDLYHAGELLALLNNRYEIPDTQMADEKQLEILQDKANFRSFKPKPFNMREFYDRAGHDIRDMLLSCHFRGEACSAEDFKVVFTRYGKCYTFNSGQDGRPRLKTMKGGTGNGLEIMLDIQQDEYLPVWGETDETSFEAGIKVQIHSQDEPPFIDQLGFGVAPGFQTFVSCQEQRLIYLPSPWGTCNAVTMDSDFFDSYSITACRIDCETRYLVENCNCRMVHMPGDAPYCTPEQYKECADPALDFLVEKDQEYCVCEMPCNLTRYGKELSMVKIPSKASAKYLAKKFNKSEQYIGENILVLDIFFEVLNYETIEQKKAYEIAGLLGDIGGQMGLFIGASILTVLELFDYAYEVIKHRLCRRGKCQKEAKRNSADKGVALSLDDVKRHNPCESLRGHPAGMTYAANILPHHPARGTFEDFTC", "assay": "Inhibition of mouse hippocampal neurons ASIC1b transfected in CHO cells assessed as reduction of acid-evoked current at 3 uM at -60 mV holding potential by two-electrode voltage-clamp electrophysiology assay", "format": "cell-based"}, "[15]": {"target": "T3, Acid-sensing ion channel 1 (Mus musculus)", "assay": "Inhibition of mouse hippocampal neurons ASIC1a transfected in CHO cells assessed as reduction of acid-evoked current at 3 uM at -60 mV holding potential by two-electrode voltage-clamp electrophysiology assay", "format": "cell-based"}, "[16]": {"target": "T4, Acid-sensing ion channel 2 (Mus musculus) (UniProt Q925H0)", "T4 sequence (whole entry)": "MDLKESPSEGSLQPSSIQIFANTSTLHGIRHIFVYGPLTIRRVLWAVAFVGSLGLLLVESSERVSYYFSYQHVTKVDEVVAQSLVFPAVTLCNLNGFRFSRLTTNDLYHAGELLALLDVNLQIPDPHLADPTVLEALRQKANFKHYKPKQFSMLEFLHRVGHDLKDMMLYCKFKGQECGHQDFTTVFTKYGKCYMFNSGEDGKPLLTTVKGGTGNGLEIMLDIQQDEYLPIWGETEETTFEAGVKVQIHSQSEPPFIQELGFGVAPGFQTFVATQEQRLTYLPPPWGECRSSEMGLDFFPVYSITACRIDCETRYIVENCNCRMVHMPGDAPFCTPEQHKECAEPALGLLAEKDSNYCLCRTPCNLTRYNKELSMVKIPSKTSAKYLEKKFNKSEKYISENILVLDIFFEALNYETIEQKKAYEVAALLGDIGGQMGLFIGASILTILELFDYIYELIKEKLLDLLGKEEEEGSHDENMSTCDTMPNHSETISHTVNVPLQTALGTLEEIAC", "assay": "Inhibition of mouse hippocampal neurons ASIC2a transfected in CHO cells assessed as reduction of acid-evoked current at 3 uM at -60 mV holding potential by two-electrode voltage-clamp electrophysiology assay", "format": "cell-based"}},
  "data": [
    {"smiles": "N=C(N)c1ccc(NCCNc2ccc(C(=N)N)cc2)cc1", "values": [
      {"measurement": "Activity", "setting": "Mus musculus [1]", "value": 69, "unit": "%"},
      {"measurement": "Activity", "setting": "Mus musculus [2]", "value": 49, "unit": "%"}
    ]},
    {"smiles": "N=C(N)NC(=N)Nc1cccc(Cl)c1Cl", "values": [
      {"measurement": "IC50", "setting": "[3]", "value": 8, "unit": "µM"}
    ]},
    {"smiles": "Cc1cc(C)c(N2C(=O)c3ccc(C(=O)Nc4cc(C(=O)O)cc(C(=O)O)c4)cc3C2=O)c(C)c1", "values": [
      {"measurement": "IC50", "setting": "[3]", "value": 44, "unit": "µM"}
    ]},
    {"smiles": "N=C(N)c1ccc(N2CCCN(c3ccc(C(=N)N)cc3)CC2)cc1", "values": [
      {"measurement": "IC50", "setting": "[4]", "value": 1.19, "unit": "µM"}
    ]},
    {"smiles": "N=C(N)c1ccc(NC(=O)c2ccc(C(=O)Nc3ccc(C(=N)N)cc3)c(N)c2)cc1", "values": [
      {"measurement": "IC50", "setting": "[5]", "value": 10, "unit": "µM"}
    ]},
    {"smiles": "N=C(N)c1ccc(OCCOc2cccc(N)c2)cc1", "values": [
      {"measurement": "IC50", "setting": "[5]", "value": 250, "unit": "µM"}
    ]},
    {"smiles": "N=C(N)NC(=N)Nc1ccc(Cl)cc1C(=O)c1ccccc1", "values": [
      {"measurement": "IC50", "setting": "[3]", "value": 12, "unit": "µM"}
    ]},
    {"smiles": "CC(C)(C)NC(=O)c1cccc(N2C(=O)c3ccc(C(=O)O)cc3C2=O)c1", "values": [
      {"measurement": "IC50", "setting": "[3]", "value": "> 100", "unit": "µM"}
    ]},
    {"smiles": "Cc1c(NS(=O)(=O)c2ccc(NC(=O)CCC(=O)O)cc2)c(=O)n(-c2ccccc2)n1C", "values": [
      {"measurement": "IC50", "setting": "[3]", "value": "> 100", "unit": "µM"}
    ]},
    {"smiles": "N=C(Nc1ccc(OCCCCCOc2ccc(NC(=N)c3ccccc3)cc2)cc1)c1ccccc1", "values": [
      {"measurement": "residual activity", "setting": "Homo sapiens [6]", "value": 86.6, "unit": "%"},
      {"measurement": "residual activity", "setting": "Homo sapiens [7]", "value": 12.1, "unit": "%"}
    ]},
    {"smiles": "N=C(N)c1ccc(-c2cc3ccc(C(=N)N)cc3[nH]2)cc1", "note": "[DAPI]", "values": [
      {"measurement": "IC50", "setting": "[8]", "value": 2.8, "unit": "µM"}
    ]},
    {"smiles": "CN1CC[C@@]23CCCC[C@@H]2[C@@H]1Cc1ccc(O)cc13", "note": "[DEXTRORPHAN]", "values": [
      {"measurement": "IC50", "setting": "[9]", "value": 1.3, "unit": "µM"}
    ]},
    {"smiles": "N=C(N)c1ccc(/N=N/Nc2ccc(C(=N)N)cc2)cc1", "note": "[DIMINAZENE]", "values": [
      {"measurement": "Ki", "setting": "[10]", "value": 120, "unit": "µM"},
      {"measurement": "Ki", "setting": "[11]", "value": 0.013, "unit": "µM"},
      {"measurement": "Ki", "setting": "[12]", "value": 2.4, "unit": "µM"},
      {"measurement": "IC50", "setting": "[8]", "value": 0.3, "unit": "µM"}
    ]},
    {"smiles": "N=C(N)c1ccc(/C=C/c2ccc(C(=N)N)cc2O)cc1", "note": "[HYDROXYSTILBAMIDINE]", "values": [
      {"measurement": "IC50", "setting": "[8]", "value": 1.5, "unit": "µM"}
    ]},
    {"smiles": "CNC1(c2ccccc2Cl)CCCCC1=O", "note": "(stereo not drawn) [KETAMINE]", "values": [
      {"measurement": "IC50", "setting": "[9]", "value": 3.31, "unit": "µM"}
    ]},
    {"smiles": "N=C(N)c1ccc(OCCCCCOc2ccc(C(=N)N)cc2)cc1", "note": "[PENTAMIDINE]", "values": [
      {"measurement": "Ki", "setting": "[10]", "value": 7.6, "unit": "µM"},
      {"measurement": "Ki", "setting": "[11]", "value": 0.29, "unit": "µM"},
      {"measurement": "residual activity", "setting": "Homo sapiens [6]", "value": 48.2, "unit": "%"},
      {"measurement": "IC50", "setting": "[9]", "value": 0.72, "unit": "µM"},
      {"measurement": "inhibition", "setting": "[13]", "value": 74, "unit": "%"},
      {"measurement": "IC50", "setting": "[3]", "value": 1.2, "unit": "µM"},
      {"measurement": "Ki", "setting": "[12]", "value": 2, "unit": "µM"},
      {"measurement": "IC50", "setting": "[5]", "value": "> 1000", "unit": "µM"},
      {"measurement": "IC50", "setting": "[8]", "value": 38, "unit": "µM"},
      {"measurement": "inhibition", "setting": "[14]", "value": 92, "unit": "%"},
      {"measurement": "inhibition", "setting": "[15]", "value": 39, "unit": "%"},
      {"measurement": "inhibition", "setting": "[16]", "value": 51, "unit": "%"},
      {"measurement": "residual activity", "setting": "Homo sapiens [7]", "value": 10.8, "unit": "%"}
    ]}
  ]
}
